Values quoted from earlier work, collected in patent publication US8580861B2, “Chemical composition for skin care formulations” (Pibed Limited, priority 2008, dated 2013).
Where two headings read alike, the source gives them in different places.

Columns and labels:
[1] = system: Lactobacillus fermentum; conditions: flow cytometry
[2] = system: Staphylococcus aureus; conditions: low concentrations (0.5 to 2 mM), disk diffusion
[3] = system: Microsporum gypseum; conditions: M. gypseum
[4] = system: Escherichia coli
[5] = system: Microsporum gypseum; conditions: 10% in Vaseline petroleum jelly, topical, daily for 3 weeks; for histopathologic examination of skin tissues: versus positive control

MIC ([3]; positive control)	MIC [3]	Compound	intracellular accumulation of ethidium bromide by live cells [1]	susceptibility to ciprofloxacin, clindamycin, erythromycin, gentamicin, tetracycline, and vancomycin [2]	sensitization to polymyxin B [4]	hair culture test [5]	skin lesion scoring [5]	histopathologic examination of skin tissues [5]
–	–	CC(C)=CCC/C(C)=C/CC1CCCC1=O (centres unmarked) [apritone]	promoted the intracellular accumulation	enhanced the susceptibility of Staphylococcus aureus	–	–	–	–
4 to 16 µg/mL	–	Clc1ccc(COC(Cn2ccnc2)c2ccc(Cl)cc2Cl)cc1 (centres unmarked) [econazole]	–	–	–	–	–	–
–	–	CC(C)=CCCC(C)=CCCC(C)=CCO [farnesol]	promoted the intracellular accumulation	–	sensitized Escherichia coli to polymyxin B	–	–	–
–	–	CC(C)=CCC[C@](C)(O)C1CC=C(C)CC1 (some centres unmarked) [bisabolol]	promoted the intracellular accumulation	enhanced the susceptibility of Staphylococcus aureus	–	–	–	–
–	0.5-2%	C=CC(C)(O)CCC=C(C)CCC=C(C)C (centres unmarked) [nerolidol, 3,7,11-trimethyl1,6,10-dodecatrien-3-ol]	promoted the intracellular accumulation	enhanced the susceptibility of Staphylococcus aureus	sensitized Escherichia coli to polymyxin B	improved the skin lesions infected by M. gypseum	clinically effective at improving the lesion during the first week of application	lower degree of hyperkeratosis and inflammatory cell infiltration than the positive control
–	0.01-0.03%	C=CCc1ccc(O)c(OC)c1 [eugenol]	–	–	–	–	clinically effective at improving the lesion during the first week of application	lower degree of hyperkeratosis and inflammatory cell infiltration than the positive control
